Laboratory results reported in US20050203117A1, “Treating allergic and inflammatory conditions” (priority 2002, published 2005).

Assay: in vivo studies of allergic bronchospasm and cough

## Clc1ccc2c(c1)CCc1cccnc1C2=C1CCNCC1 [desloratadine]
  effect on allergic bronchospasm and cough: inhibitory effect
